In PubChem BioAssay (NCI):
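1) Cells in 96-well plates. 2) Compound, 48 h, 5 concentrations. 3) Linear interpolation between surrounding doses. 4) Unreached endpoint = highest concentration. Abbreviation: GI50, concentration required for 50% inhibition of growth. Definition used: TGI = concentration required for complete inhibition of growth.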

How the values were obtained:
Assay in all cases: DTP human tumour cell line panel, 48 h
COLO 205 colon = tested on: COLO 205 colon
MCF7 breast = tested on: MCF7 breast
MDA-MB-231 breast = tested on: MDA-MB-231 breast
SF-295 CNS = tested on: SF-295 CNS
SK-MEL-5 melanoma = tested on: SK-MEL-5 melanoma
786-0 renal = tested on: 786-0 renal
UACC-62 melanoma = tested on: UACC-62 melanoma
HCT-116 colon = tested on: HCT-116 colon
U251 CNS = tested on: U251 CNS
HOP-92 NSCLC = tested on: HOP-92 NSCLC
SK-MEL-28 melanoma = tested on: SK-MEL-28 melanoma
MDA-N = tested on: MDA-N
OVCAR-8 ovarian = tested on: OVCAR-8 ovarian
DU-145 prostate = tested on: DU-145 prostate
HCT-15 colon = tested on: HCT-15 colon
OVCAR-4 ovarian = tested on: OVCAR-4 ovarian
LOX IMVI melanoma = tested on: LOX IMVI melanoma
T-47D breast = tested on: T-47D breast
EKVX NSCLC = tested on: EKVX NSCLC
KM12 colon = tested on: KM12 colon
OVCAR-5 ovarian = tested on: OVCAR-5 ovarian
NCI/ADR-RES ovarian = tested on: NCI/ADR-RES ovarian
NCI-H226 lung = tested on: NCI-H226 lung
MDA-MB-435 = tested on: MDA-MB-435
OVCAR-3 ovarian = tested on: OVCAR-3 ovarian
NCI-H23 lung = tested on: NCI-H23 lung
HOP-62 NSCLC = tested on: HOP-62 NSCLC
NCI-H522 lung = tested on: NCI-H522 lung
A549 NSCLC = tested on: A549 NSCLC
HCC-2998 colon = tested on: HCC-2998 colon
A498 renal = tested on: A498 renal
M14 melanoma = tested on: M14 melanoma
ACHN renal = tested on: ACHN renal
CCRF-CEM leukemia = tested on: CCRF-CEM leukemia
PC-3 prostate = tested on: PC-3 prostate
RXF 393 renal = tested on: RXF 393 renal
SNB-75 CNS = tested on: SNB-75 CNS
HT29 colon = tested on: HT29 colon
MALME-3M melanoma = tested on: MALME-3M melanoma
IGROV1 ovarian = tested on: IGROV1 ovarian
UO-31 renal = tested on: UO-31 renal
SK-OV-3 ovarian = tested on: SK-OV-3 ovarian
SF-539 CNS = tested on: SF-539 CNS
UACC-257 melanoma = tested on: UACC-257 melanoma
SK-MEL-2 melanoma = tested on: SK-MEL-2 melanoma
HL-60(TB) leukemia = tested on: HL-60(TB) leukemia
CAKI-1 renal = tested on: CAKI-1 renal
SN12C renal = tested on: SN12C renal
TK-10 renal = tested on: TK-10 renal
NCI-H460 lung = tested on: NCI-H460 lung
SF-268 CNS = tested on: SF-268 CNS
SR leukemia = tested on: SR leukemia
SNB-19 CNS = tested on: SNB-19 CNS
BT-549 breast = tested on: BT-549 breast
RPMI-8226 leukemia = tested on: RPMI-8226 leukemia
SW-620 colon = tested on: SW-620 colon
MOLT-4 leukemia = tested on: MOLT-4 leukemia
HS 578T breast = tested on: HS 578T breast
K-562 leukemia = tested on: K-562 leukemia

Nc1nc(N)c2ncn(-c3ccc(Cl)cc3)c2n1
TGI (COLO 205 colon): > 100 µM | TGI (MCF7 breast): > 100 µM | TGI (MDA-MB-231 breast): > 100 µM | TGI (SF-295 CNS): > 100 µM | TGI (SK-MEL-5 melanoma): > 100 µM | TGI (786-0 renal): > 100 µM | TGI (UACC-62 melanoma): > 100 µM | TGI (HCT-116 colon): > 100 µM | TGI (U251 CNS): > 100 µM | TGI (HOP-92 NSCLC): > 100 µM | TGI (SK-MEL-28 melanoma): > 100 µM | TGI (MDA-N): > 100 µM | TGI (OVCAR-8 ovarian): > 100 µM | TGI (DU-145 prostate): > 100 µM | TGI (HCT-15 colon): > 100 µM | TGI (OVCAR-4 ovarian): > 100 µM | TGI (LOX IMVI melanoma): > 100 µM | TGI (T-47D breast): > 100 µM | TGI (EKVX NSCLC): > 100 µM | TGI (KM12 colon): > 100 µM | TGI (OVCAR-5 ovarian): > 100 µM | TGI (NCI/ADR-RES ovarian): > 100 µM | TGI (NCI-H226 lung): > 100 µM | TGI (MDA-MB-435): > 100 µM | TGI (OVCAR-3 ovarian): > 100 µM | TGI (NCI-H23 lung): > 100 µM | TGI (HOP-62 NSCLC): > 100 µM | TGI (NCI-H522 lung): > 100 µM | TGI (A549 NSCLC): > 100 µM | TGI (HCC-2998 colon): > 100 µM | TGI (A498 renal): 83.5 µM | TGI (M14 melanoma): > 100 µM | TGI (ACHN renal): > 100 µM | TGI (CCRF-CEM leukemia): 66.1 µM | TGI (PC-3 prostate): > 100 µM | TGI (RXF 393 renal): 73.5 µM | TGI (SNB-75 CNS): 59.1 µM | TGI (HT29 colon): > 100 µM | TGI (MALME-3M melanoma): > 100 µM | TGI (IGROV1 ovarian): 96.3 µM | TGI (UO-31 renal): > 100 µM | TGI (SK-OV-3 ovarian): 53.3 µM | TGI (SF-539 CNS): 80.5 µM | TGI (UACC-257 melanoma): > 100 µM | TGI (SK-MEL-2 melanoma): > 100 µM | TGI (HL-60(TB) leukemia): > 100 µM | TGI (CAKI-1 renal): > 100 µM | TGI (SN12C renal): > 100 µM | TGI (TK-10 renal): > 100 µM

NS(=O)(=O)c1ccc(N=Nc2c(O)[nH]c3ccc(-c4cnco4)cc23)cc1
GI50 (COLO 205 colon): > 25 µM | TGI (COLO 205 colon): > 25 µM | GI50 (MCF7 breast): 11.8 µM | TGI (MCF7 breast): > 25 µM | GI50 (MDA-MB-231 breast): > 25 µM | TGI (MDA-MB-231 breast): > 25 µM | GI50 (SF-295 CNS): > 25 µM | TGI (SF-295 CNS): > 25 µM | GI50 (SK-MEL-5 melanoma): > 25 µM | TGI (SK-MEL-5 melanoma): > 25 µM | GI50 (786-0 renal): > 25 µM | TGI (786-0 renal): > 25 µM | GI50 (UACC-62 melanoma): > 25 µM | TGI (UACC-62 melanoma): > 25 µM | GI50 (HCT-116 colon): 6.97 µM | TGI (HCT-116 colon): > 25 µM | GI50 (U251 CNS): > 25 µM | TGI (U251 CNS): > 25 µM | GI50 (HOP-92 NSCLC): > 25 µM | TGI (HOP-92 NSCLC): > 25 µM | GI50 (SK-MEL-28 melanoma): > 25 µM | TGI (SK-MEL-28 melanoma): > 25 µM | GI50 (NCI-H460 lung): 14.3 µM | TGI (NCI-H460 lung): > 25 µM | GI50 (OVCAR-8 ovarian): > 19.2 µM | TGI (OVCAR-8 ovarian): > 25 µM | GI50 (SF-268 CNS): > 25 µM | TGI (SF-268 CNS): > 25 µM | GI50 (DU-145 prostate): 24.4 µM | TGI (DU-145 prostate): > 25 µM | GI50 (HCT-15 colon): > 25 µM | TGI (HCT-15 colon): > 25 µM | GI50 (OVCAR-4 ovarian): > 25 µM | TGI (OVCAR-4 ovarian): > 25 µM | GI50 (LOX IMVI melanoma): 22.8 µM | TGI (LOX IMVI melanoma): > 25 µM | GI50 (T-47D breast): > 25 µM | TGI (T-47D breast): > 25 µM | GI50 (EKVX NSCLC): > 25 µM | TGI (EKVX NSCLC): > 25 µM | GI50 (SR leukemia): 4.99 µM | TGI (SR leukemia): > 25 µM | GI50 (KM12 colon): 6.86 µM | TGI (KM12 colon): > 23.9 µM | GI50 (SNB-19 CNS): > 25 µM | TGI (SNB-19 CNS): > 25 µM | GI50 (OVCAR-5 ovarian): > 25 µM | TGI (OVCAR-5 ovarian): > 25 µM | GI50 (NCI/ADR-RES ovarian): > 25 µM | TGI (NCI/ADR-RES ovarian): > 25 µM | GI50 (NCI-H226 lung): > 25 µM | TGI (NCI-H226 lung): > 25 µM | GI50 (MDA-MB-435): > 25 µM | TGI (MDA-MB-435): > 25 µM | GI50 (OVCAR-3 ovarian): > 25 µM | TGI (OVCAR-3 ovarian): > 25 µM | GI50 (NCI-H23 lung): > 25 µM | TGI (NCI-H23 lung): > 25 µM | GI50 (HOP-62 NSCLC): > 25 µM | TGI (HOP-62 NSCLC): > 25 µM | GI50 (NCI-H522 lung): > 6.68 µM | TGI (NCI-H522 lung): > 25 µM | GI50 (A549 NSCLC): > 25 µM | TGI (A549 NSCLC): > 25 µM | GI50 (BT-549 breast): 18 µM | TGI (BT-549 breast): > 25 µM | GI50 (RPMI-8226 leukemia): > 25 µM | TGI (RPMI-8226 leukemia): > 25 µM | GI50 (HCC-2998 colon): > 25 µM | TGI (HCC-2998 colon): > 25 µM | GI50 (A498 renal): > 25 µM | TGI (A498 renal): > 25 µM | GI50 (SW-620 colon): 9.91 µM | TGI (SW-620 colon): > 25 µM | GI50 (M14 melanoma): > 25 µM | TGI (M14 melanoma): > 25 µM | GI50 (ACHN renal): 17.7 µM | TGI (ACHN renal): > 25 µM | GI50 (CCRF-CEM leukemia): 14.4 µM | TGI (CCRF-CEM leukemia): > 25 µM | GI50 (PC-3 prostate): > 25 µM | TGI (PC-3 prostate): > 25 µM | GI50 (RXF 393 renal): > 19.6 µM | TGI (RXF 393 renal): > 25 µM | GI50 (SNB-75 CNS): 10.1 µM | TGI (SNB-75 CNS): > 25 µM | GI50 (HT29 colon): > 25 µM | TGI (HT29 colon): > 25 µM | GI50 (MALME-3M melanoma): > 25 µM | TGI (MALME-3M melanoma): > 25 µM | GI50 (IGROV1 ovarian): > 25 µM | TGI (IGROV1 ovarian): > 25 µM | GI50 (UO-31 renal): > 25 µM | TGI (UO-31 renal): > 25 µM | GI50 (SK-OV-3 ovarian): > 25 µM | TGI (SK-OV-3 ovarian): > 25 µM | GI50 (MOLT-4 leukemia): > 25 µM | TGI (MOLT-4 leukemia): > 25 µM | GI50 (SF-539 CNS): > 25 µM | TGI (SF-539 CNS): > 25 µM | GI50 (HS 578T breast): > 25 µM | TGI (HS 578T breast): > 25 µM | GI50 (UACC-257 melanoma): > 25 µM | TGI (UACC-257 melanoma): > 25 µM | GI50 (SK-MEL-2 melanoma): > 25 µM | TGI (SK-MEL-2 melanoma): > 25 µM | GI50 (HL-60(TB) leukemia): > 25 µM | TGI (HL-60(TB) leukemia): > 25 µM | GI50 (CAKI-1 renal): > 25 µM | TGI (CAKI-1 renal): > 25 µM | GI50 (K-562 leukemia): > 25 µM | TGI (K-562 leukemia): > 25 µM | GI50 (SN12C renal): > 25 µM | TGI (SN12C renal): > 25 µM | GI50 (TK-10 renal): > 25 µM | TGI (TK-10 renal): > 25 µM
